Assay results published in publication PMC6768028, “Synthesis, SAR and in vitro therapeutic potentials of thiazolidine-2,4-diones” (Chemistry Central Journal, 2018).
Converted amounts (≈) assume the structure as drawn. Like-named read-outs stand apart in the source and are kept apart here.

Assays:
[1] = test system: α-amylase enzyme (diastase); experiment: Antidiabetic activity: α-amylase inhibitory activity using diastase, colorimetric method; format: biochemical; conditions: for IC50 (antidiabetic activity, α-amylase): calculated via graph of % inhibition
Procedure: All the synthesized compounds were evaluated against α-amylase inhibitory activity by using diastase based on colorimetric method. 0.25 g of soluble potato starch was dissolved in 50 ml of 20 mM phosphate buffer by heating for 15 min. 1 mg diastase (amylase enzyme) was mixed in 100 ml of 20 mM phosphate buffer (pH 6.9) to obtain the enzyme solution. Different concentrations of all the synthesized derivatives were prepared by dissolving them in DMSO. […] 1 ml of enzyme solution was mixed with 1 ml of each synthesized derivatives and incubated for 10 min at 25 °C. Then 1 ml of this mixture was mixed with 1 ml of soluble potato starch solution in a tube and incubated for 10 min at 25 °C. Then tubes were closed after adding 1 ml of color reagent and placed into water bath for 15 min at 85 °C. The reaction mixture was removed from water bath after 15 min. After cooling, the reaction mixture was diluted with 9 ml of distilled water and the absorbance was taken at 540 nm in UV spectrophotometer. Blank solution was prepared by replacing the enzyme solution with buffer solution and absorbance was taken. Measurement of control was performed in identical manner by replacing the synthesized derivatives in 1 ml of DMSO.
Percentage inhibition of α-amylase enzyme was calculated by using following formula:1 %Inhibition=ABlank-ASample/ABlank×100

[2] = Antioxidant activity: free radical scavenging method by DPPH assay; conditions: for % inhibition (DPPH), 25 μg/ml / % inhibition (DPPH), 50 μg/ml / % inhibition (DPPH), 75 μg/ml / % inhibition (DPPH), 100 μg/ml: 30 min, 517 nm; for IC50 (antioxidant activity, DPPH): calculated via graph of % inhibition
Procedure: The antioxidant activity of the newly synthesized compounds were evaluated spectrophotometrically using free radical scavenging method by DPPH (2,2-diphenyl-1-picrylhydrazyl) assay. The DPPH is a stable free radical with maximal absorption at 517 nm and is reduced to a corresponding hydrazine when it reacting with hydrogen donors. […] DPPH solution (3 μg/ml) was prepared in methanol and DPPH (in 1:1) solution was used for blank reference. Four dilutions of different concentrations (25, 50, 75 and 100 μg/ml) of each synthesized compound and standard (ascorbic acid) were prepared in the methanol and 1 ml of each concentration was added to 1 ml of DPPH solution. The solution mixture was shaken vigorously and kept in dark place for 30 min at room temperature and absorbance was measured by UV at 517 nm. Percentage inhibition of Free radical DPPH was calculated as follows:1 %Inhibition=ABlank-ASample/ABlank×100 where, ABlank: absorbance of the blank reaction, ASample: absorbance of the test compound.

Escherichia coli = experiment: Antimicrobial activity, tube dilution method (MIC); format: cell-based; conditions: 24 h
Procedure: (§1) The in vitro antimicrobial activity of synthesized compounds was done by tube dilution method against Gram-positive bacteria: Staphylococcus aureus, Bacillus subtilis, Gram-negative bacteria: Escherichia coli, Klebsiella pneumonia, Salmonella typhi and fungal: Candida albicans and Aspergillus niger strains using cefadroxil and fluconazole as standard. Dilutions of test and standard compounds were prepared in double strength nutrient broth for bacterial strains and Sabouraud dextrose broth for fungal strains.

Bacillus subtilis = experiment: Antimicrobial activity, tube dilution method (MIC); format: cell-based; conditions: 24 h
Procedure: as §1

Salmonella typhi = experiment: Antimicrobial activity, tube dilution method (MIC); format: cell-based; conditions: Salmonella enterica, TYPHI, 24 h, read-out: Minimum inhibitory concentration, S. typhi
Procedure: as §1

Klebsiella pneumonia = experiment: Antimicrobial activity, tube dilution method (MIC); format: cell-based; conditions: Klebsiella pneumoniae, 24 h
Procedure: as §1

Staphylococcus aureus = experiment: Antimicrobial activity, tube dilution method (MIC); format: cell-based; conditions: 24 h, read-out: Minimum inhibitory concentration, S. aureus, tube dilution, 37 ± 1 °C, 24 h
Procedure: as §1

Candida albicans = experiment: Antifungal activity, tube dilution method (MIC); format: cell-based; conditions: 48 h
Procedure: as §1

Aspergillus niger = experiment: Antifungal activity, tube dilution method (MIC); format: cell-based; conditions: 168 h
Procedure: as §1

[3] = read-out: Minimum inhibitory concentration, E. coli, tube dilution, 37 ± 1 °C, 24 h
[4] = tube dilution, 37 ± 1 °C, read-out: Minimum inhibitory concentration, B. subtilis
[5] = tube dilution, 37 ± 1 °C, read-out: Minimum inhibitory concentration, K. pneumonia
[6] = read-out: Minimum inhibitory concentration, B. subtilis, tube dilution, 37 ± 1 °C, 24 h
[7] = read-out: Minimum inhibitory concentration, K. pneumonia, tube dilution, 37 ± 1 °C, 24 h
[8] = read-out: Minimum inhibitory concentration, C. albicans, tube dilution, 37 ± 1 °C, 48 h
[9] = read-out: Minimum inhibitory concentration, A. niger, tube dilution, 25 ± 1 °C, 7 days

| SMILES | % inhibition (α-amylase), 25 μg/ml [1] | % inhibition (α-amylase), 50 μg/ml [1] | % inhibition (α-amylase), 75 μg/ml [1] | % inhibition (α-amylase), 100 μg/ml [1] | % inhibition (DPPH), 25 μg/ml [2] | % inhibition (DPPH), 50 μg/ml [2] | % inhibition (DPPH), 75 μg/ml [2] | % inhibition (DPPH), 100 μg/ml [2] | IC50 (antioxidant activity, DPPH) [2] | MIC (Escherichia coli; [3]) | MIC (Salmonella typhi) | MIC (Staphylococcus aureus) | MIC (Bacillus subtilis; [6]) | MIC (Klebsiella pneumonia; [7]) | IC50 (antidiabetic activity, α-amylase) [1] | MIC (Candida albicans; [8]) | MIC (Aspergillus niger; [9]) | also measured |
| --- | --- | --- | --- | --- | --- | --- | --- | --- | --- | --- | --- | --- | --- | --- | --- | --- | --- | --- |
| C[C@H]1O[C@H](O[C@H]2[C@H](O)[C@@H](O)[C@@H](O[C@H]3[C@H](O)[C@@H](O)C(O)O[C@@H]3CO)O[C@@H]2CO)[C@H](O)[C@@H](O)[C@@H]1N[C@H]1C=C(CO)[C@@H](O)[C@H](O)[C@H]1O (stereo partly shown) [Acarabose, Acarbose, reference compound] | 37.35% | 53.45% | 73.25% | 88.57% | – | – | – | – | – | – | – | – | – | – | – | – | – | – |
| O=C1O[C@H]([C@@H](O)CO)C(O)=C1O [Ascorbic acid, ascorbic acid, reference compound] | – | – | – | – | 38.99% | 55.78% | 72.51% | 93.15% | 21.64 µg/mL (≈ 123 µM) | – | – | – | – | – | – | – | – | – |
| CC1=C(C(=O)O)N2C(=O)[C@@H](NC(=O)[C@H](N)c3ccc(O)cc3)[C@H]2SC1 [Cefadroxil, cefadroxil, reference compound] | – | – | – | – | – | – | – | – | – | 1.71 mM (≈ 621 µg/mL) | 1.71 mM (≈ 621 µg/mL) | 1.71 mM (≈ 621 µg/mL) | – | – | – | – | – | MIC (Bacillus subtilis; [4]): 3.4 mM (≈ 1240 µg/mL); MIC (Klebsiella pneumonia; [5]): 3.4 mM (≈ 1240 µg/mL) |
| O=C1NC(=O)C(=Cc2ccc([N+](=O)[O-])cc2)S1 [Compound 1, 5-(4-Nitrobenzylidene)thiazolidine-2,4-dione] | 22.65% | 35.79% | 55.52% | 88.68% | 32.64% | 40.22% | 73.41% | 84.81% | 36.35 µg/mL (≈ 145 µM) | 4.9 mM (≈ 1230 µg/mL) | 4.9 mM (≈ 1230 µg/mL) | 4.9 mM (≈ 1230 µg/mL) | 9.9 mM (≈ 2480 µg/mL) | 9.9 mM (≈ 2480 µg/mL) | 54.35 µg/mL (≈ 217 µM) | 4.9 mM (≈ 1230 µg/mL) | 4.9 mM (≈ 1230 µg/mL) | – |
| O=C1NC(=O)C(=Cc2ccc(Cl)cc2Cl)S1 [Compound 3, 5-(2,4-Dichlorobenzylidene)thiazolidine-2,4-dione] | 29.45% | 47.98% | 60.83% | 95.79% | 35.89% | 42.67% | 70.25% | 85.44% | 29.04 µg/mL (≈ 106 µM) | 9.12 mM (≈ 2500 µg/mL) | 4.5 mM (≈ 1230 µg/mL) | 4.5 mM (≈ 1230 µg/mL) | 4.5 mM (≈ 1230 µg/mL) | 9.12 mM (≈ 2500 µg/mL) | 43.45 µg/mL (≈ 159 µM) | 4.5 mM (≈ 1230 µg/mL) | 4.5 mM (≈ 1230 µg/mL) | – |
| O=C1NC(=O)C(=Cc2ccccc2[N+](=O)[O-])S1 [Compound 4, 5-(2-Nitrobenzylidene)thiazolidine-2,4-dione] | 31.26% | 40.65% | 63.93% | 92.61% | 29.45% | 45.75% | 79.74% | 83.10% | 36.17 µg/mL (≈ 145 µM) | – | 4.99 mM (≈ 1250 µg/mL) | 4.99 mM (≈ 1250 µg/mL) | 9.9 mM (≈ 2480 µg/mL) | 9.9 mM (≈ 2480 µg/mL) | 43.63 µg/mL (≈ 174 µM) | 4.99 mM (≈ 1250 µg/mL) | 4.99 mM (≈ 1250 µg/mL) | – |
| O=C1NC(=O)C(=Cc2ccc(O)cc2)S1 [Compound 5, 5-(4-Hydroxybenzylidene)thiazolidine-2,4-dione] | 18.26% | 47.61% | 49.24% | 96.72% | 35.79% | 39.78% | 62.02% | 85.47% | 31.10 µg/mL (≈ 141 µM) | – | 5.65 mM (≈ 1250 µg/mL) | 5.65 mM (≈ 1250 µg/mL) | 5.65 mM (≈ 1250 µg/mL) | – | 56.64 µg/mL (≈ 256 µM) | 5.65 mM (≈ 1250 µg/mL) | 5.65 mM (≈ 1250 µg/mL) | MIC (Escherichia coli; tube dilution, 37 ± 1 °C, read-out: Minimum inhibitory concentration, E. coli): 11.3 mM (≈ 2500 µg/mL); MIC (Klebsiella pneumonia; [5]): 11.3 mM (≈ 2500 µg/mL) |
| CCOc1cc(C=C2SC(=O)NC2=O)ccc1O [Compound 11, 5-(4-Hydroxy-3-ethoxybenzylidene)thiazolidine-2,4-dione] | 18.49% | 47.87% | 59.74% | 89.71% | 18.64% | 25.71% | 72.78% | 93.59% | 64.03 µg/mL (≈ 241 µM) | 4.7 mM (≈ 1250 µg/mL) | 4.7 mM (≈ 1250 µg/mL) | 4.7 mM (≈ 1250 µg/mL) | 9.4 mM (≈ 2490 µg/mL) | 4.7 mM (≈ 1250 µg/mL) | 52.69 µg/mL (≈ 199 µM) | 4.7 mM (≈ 1250 µg/mL) | 4.7 mM (≈ 1250 µg/mL) | – |
| COc1ccc(C=C2SC(=O)NC2=O)cc1 [Compound 12, 5-(4-methoxybenzylidene)thiazolidine-2,4-dione] | 27.77% | 53.23% | 62.27% | 79.43% | 20.67% | 42.75% | 77.84% | 90.50% | 53.27 µg/mL (≈ 226 µM) | 5.31 mM (≈ 1250 µg/mL) | 5.31 mM (≈ 1250 µg/mL) | 10.6 mM (≈ 2490 µg/mL) | 10.6 mM (≈ 2490 µg/mL) | 10.6 mM (≈ 2490 µg/mL) | 27.63 µg/mL (≈ 117 µM) | 5.31 mM (≈ 1250 µg/mL) | 5.31 mM (≈ 1250 µg/mL) | – |
| O=C1NC(=O)C(=Cc2ccccc2Cl)S1 [Compound 13, 5-(2-Chlorobenzylidene)thiazolidine-2,4-dione] | 25.74% | 43.89% | 56.76% | 92.72% | 24.45% | 44.76% | 71.51% | 77.84% | 39.41 µg/mL (≈ 164 µM) | 5.21 mM (≈ 1250 µg/mL) | 5.21 mM (≈ 1250 µg/mL) | 5.21 mM (≈ 1250 µg/mL) | 10.4 mM (≈ 2490 µg/mL) | 10.4 mM (≈ 2490 µg/mL) | 48.45 µg/mL (≈ 202 µM) | 5.21 mM (≈ 1250 µg/mL) | 2.6 mM (≈ 623 µg/mL) | – |
| O=C1NC(=O)C(=Cc2ccccc2O)S1 [Compound 17, 5-(2-Hydroxybenzylidene)thiazolidine-2,4-dione] | 23.67% | 48.56% | 65.46% | 93.17% | 32.78% | 40.24% | 69.55% | 89.87% | 40.06 µg/mL (≈ 181 µM) | 5.65 mM (≈ 1250 µg/mL) | 5.65 mM (≈ 1250 µg/mL) | 5.65 mM (≈ 1250 µg/mL) | – | – | 48.48 µg/mL (≈ 219 µM) | 5.65 mM (≈ 1250 µg/mL) | 5.65 mM (≈ 1250 µg/mL) | MIC (Bacillus subtilis; [4]): 11.3 mM (≈ 2500 µg/mL); MIC (Klebsiella pneumonia; [5]): 11.3 mM (≈ 2500 µg/mL) |
| OC(Cn1cncn1)(Cn1cncn1)c1ccc(F)cc1F [Fluconazole, fluconazole, reference compound] | – | – | – | – | – | – | – | – | – | – | – | – | – | – | – | – | – | MIC (Candida albicans; tube dilution, 37 ± 1 °C, read-out: Minimum inhibitory concentration, C. albicans): 4.08 mM (≈ 1250 µg/mL); MIC (Aspergillus niger; tube dilution, 25 ± 1 °C, 7 days, read-out: Minimum inhibitory concentration, A. niger): 4.08 mM (≈ 1250 µg/mL) |
